Values of other authors in publication PMC4158421, “Screening-based discovery of Aspergillus fumigatus plant-type chitinase inhibitors” (Febs Letters, 2014).

Test system: A. fumigatus biofilm
Set-up: method as in PMID 23314962

CC(=O)Nc1nnc(S(N)(=O)=O)s1 [acetazolamide]
effect on A. fumigatus biofilm biomass: reduce A. fumigatus biofilm biomass
